Reference: article PMC6437697 (Journal of Medicinal Chemistry, 2019)

How the values were obtained:
Test in all cases: KINOMEscan
Type in all cases: binding
Details in all cases: read-out: % control activity remaining
MST2 = molecular target: T1, MST2 (Homo sapiens, UniProt Q13188)
T1 construct: purchased Eurofins DiscoverX KINOMEscan
T1 sequence (Q13188 1-491): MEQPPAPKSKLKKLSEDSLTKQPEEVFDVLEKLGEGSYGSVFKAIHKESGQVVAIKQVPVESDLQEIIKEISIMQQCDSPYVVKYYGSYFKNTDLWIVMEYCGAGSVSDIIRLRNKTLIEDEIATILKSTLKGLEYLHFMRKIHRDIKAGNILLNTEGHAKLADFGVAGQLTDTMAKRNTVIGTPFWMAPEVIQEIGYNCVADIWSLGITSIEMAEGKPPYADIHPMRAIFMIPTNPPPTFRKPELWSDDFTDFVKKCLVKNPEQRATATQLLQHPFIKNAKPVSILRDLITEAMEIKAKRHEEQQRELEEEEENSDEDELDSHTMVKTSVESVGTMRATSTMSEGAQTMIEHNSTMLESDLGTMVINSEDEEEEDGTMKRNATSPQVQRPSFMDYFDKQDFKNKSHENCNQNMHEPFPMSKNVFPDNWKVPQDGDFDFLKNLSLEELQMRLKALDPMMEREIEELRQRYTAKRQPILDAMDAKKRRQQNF

TAOK1 = molecular target: T2, TAOK1 (Homo sapiens, UniProt Q7L7X3)
T2 construct: purchased Eurofins DiscoverX KINOMEscan
T2 sequence (Q7L7X3 1-1001): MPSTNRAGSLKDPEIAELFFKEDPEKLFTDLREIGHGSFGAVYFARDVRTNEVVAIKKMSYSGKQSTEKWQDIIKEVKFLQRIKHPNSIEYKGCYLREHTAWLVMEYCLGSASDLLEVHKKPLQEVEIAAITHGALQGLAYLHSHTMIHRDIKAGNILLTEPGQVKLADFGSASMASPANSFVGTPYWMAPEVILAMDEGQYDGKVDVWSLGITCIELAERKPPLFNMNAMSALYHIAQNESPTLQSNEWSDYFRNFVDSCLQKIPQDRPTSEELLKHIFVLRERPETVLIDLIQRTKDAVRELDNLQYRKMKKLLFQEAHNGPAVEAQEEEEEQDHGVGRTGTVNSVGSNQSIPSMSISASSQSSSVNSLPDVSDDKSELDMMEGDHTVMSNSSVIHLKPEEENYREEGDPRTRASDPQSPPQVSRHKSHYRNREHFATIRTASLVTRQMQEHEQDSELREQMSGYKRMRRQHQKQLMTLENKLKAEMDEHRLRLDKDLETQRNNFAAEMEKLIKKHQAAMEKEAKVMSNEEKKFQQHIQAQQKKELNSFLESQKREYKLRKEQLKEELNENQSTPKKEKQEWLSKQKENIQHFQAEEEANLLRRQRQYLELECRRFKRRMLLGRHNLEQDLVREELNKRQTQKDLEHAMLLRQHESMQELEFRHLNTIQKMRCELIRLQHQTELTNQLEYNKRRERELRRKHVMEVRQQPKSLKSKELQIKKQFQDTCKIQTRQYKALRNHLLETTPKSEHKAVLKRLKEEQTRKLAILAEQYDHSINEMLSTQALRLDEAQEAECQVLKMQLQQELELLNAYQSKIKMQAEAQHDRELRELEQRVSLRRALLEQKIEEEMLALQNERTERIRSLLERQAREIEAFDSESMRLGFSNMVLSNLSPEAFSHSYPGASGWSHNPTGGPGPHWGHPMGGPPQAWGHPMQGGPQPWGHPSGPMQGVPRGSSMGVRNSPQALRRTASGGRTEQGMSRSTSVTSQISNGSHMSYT

PIP5K1C = molecular target: T3, PIP5K1C (Homo sapiens, UniProt O60331)
T3 construct: purchased Eurofins DiscoverX KINOMEscan
T3 sequence (O60331 whole entry): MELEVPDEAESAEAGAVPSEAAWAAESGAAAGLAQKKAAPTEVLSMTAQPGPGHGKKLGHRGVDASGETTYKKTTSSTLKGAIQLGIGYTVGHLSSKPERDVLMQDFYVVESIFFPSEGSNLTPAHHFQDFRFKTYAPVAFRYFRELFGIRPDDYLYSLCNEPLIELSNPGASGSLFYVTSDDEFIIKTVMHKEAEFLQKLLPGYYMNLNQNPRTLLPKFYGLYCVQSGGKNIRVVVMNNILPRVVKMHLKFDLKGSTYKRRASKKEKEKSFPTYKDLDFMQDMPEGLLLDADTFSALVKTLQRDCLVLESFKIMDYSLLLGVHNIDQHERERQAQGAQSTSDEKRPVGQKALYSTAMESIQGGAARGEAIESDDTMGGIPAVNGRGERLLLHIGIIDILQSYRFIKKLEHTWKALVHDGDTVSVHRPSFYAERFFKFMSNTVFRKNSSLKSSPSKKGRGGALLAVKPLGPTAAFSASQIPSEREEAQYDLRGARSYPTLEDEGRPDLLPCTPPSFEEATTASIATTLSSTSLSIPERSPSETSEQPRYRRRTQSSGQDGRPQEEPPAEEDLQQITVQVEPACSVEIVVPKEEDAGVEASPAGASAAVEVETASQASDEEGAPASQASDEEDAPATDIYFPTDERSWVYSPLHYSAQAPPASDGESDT

CSK = molecular target: T4, CSK (Homo sapiens, UniProt P41240)
T4 construct: purchased Eurofins DiscoverX KINOMEscan
T4 sequence (P41240 whole entry): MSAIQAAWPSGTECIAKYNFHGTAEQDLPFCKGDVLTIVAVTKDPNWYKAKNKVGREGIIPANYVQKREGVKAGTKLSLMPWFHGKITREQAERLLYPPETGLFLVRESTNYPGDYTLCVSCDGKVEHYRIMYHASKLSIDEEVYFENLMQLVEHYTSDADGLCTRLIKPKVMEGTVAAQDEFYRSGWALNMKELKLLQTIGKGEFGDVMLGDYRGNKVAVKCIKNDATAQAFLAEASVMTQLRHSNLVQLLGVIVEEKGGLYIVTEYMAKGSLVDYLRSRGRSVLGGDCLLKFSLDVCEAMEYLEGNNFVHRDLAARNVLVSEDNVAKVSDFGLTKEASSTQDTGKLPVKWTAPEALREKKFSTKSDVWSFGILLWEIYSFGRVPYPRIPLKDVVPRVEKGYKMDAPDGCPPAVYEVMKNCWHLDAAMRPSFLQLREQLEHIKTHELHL

MKK7 = molecular target: T5, MKK7 (Homo sapiens, UniProt O14733)
T5 construct: purchased Eurofins DiscoverX KINOMEscan
T5 sequence (O14733 1-419): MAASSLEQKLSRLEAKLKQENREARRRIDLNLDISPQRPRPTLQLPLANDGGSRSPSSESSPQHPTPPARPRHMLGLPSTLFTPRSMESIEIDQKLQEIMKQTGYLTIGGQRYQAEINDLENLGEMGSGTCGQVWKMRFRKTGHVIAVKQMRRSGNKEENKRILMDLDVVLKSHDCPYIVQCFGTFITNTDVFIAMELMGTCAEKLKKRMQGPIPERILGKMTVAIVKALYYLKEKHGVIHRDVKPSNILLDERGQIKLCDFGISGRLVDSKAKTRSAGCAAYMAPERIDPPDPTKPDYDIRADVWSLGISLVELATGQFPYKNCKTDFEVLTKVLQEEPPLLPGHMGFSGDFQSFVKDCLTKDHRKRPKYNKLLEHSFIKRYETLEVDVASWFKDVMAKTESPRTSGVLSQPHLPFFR

MAP4K2 = molecular target: T6, MAP4K2 (Homo sapiens, UniProt Q12851)
T6 construct: purchased Eurofins DiscoverX KINOMEscan
T6 sequence (Q12851 1-820): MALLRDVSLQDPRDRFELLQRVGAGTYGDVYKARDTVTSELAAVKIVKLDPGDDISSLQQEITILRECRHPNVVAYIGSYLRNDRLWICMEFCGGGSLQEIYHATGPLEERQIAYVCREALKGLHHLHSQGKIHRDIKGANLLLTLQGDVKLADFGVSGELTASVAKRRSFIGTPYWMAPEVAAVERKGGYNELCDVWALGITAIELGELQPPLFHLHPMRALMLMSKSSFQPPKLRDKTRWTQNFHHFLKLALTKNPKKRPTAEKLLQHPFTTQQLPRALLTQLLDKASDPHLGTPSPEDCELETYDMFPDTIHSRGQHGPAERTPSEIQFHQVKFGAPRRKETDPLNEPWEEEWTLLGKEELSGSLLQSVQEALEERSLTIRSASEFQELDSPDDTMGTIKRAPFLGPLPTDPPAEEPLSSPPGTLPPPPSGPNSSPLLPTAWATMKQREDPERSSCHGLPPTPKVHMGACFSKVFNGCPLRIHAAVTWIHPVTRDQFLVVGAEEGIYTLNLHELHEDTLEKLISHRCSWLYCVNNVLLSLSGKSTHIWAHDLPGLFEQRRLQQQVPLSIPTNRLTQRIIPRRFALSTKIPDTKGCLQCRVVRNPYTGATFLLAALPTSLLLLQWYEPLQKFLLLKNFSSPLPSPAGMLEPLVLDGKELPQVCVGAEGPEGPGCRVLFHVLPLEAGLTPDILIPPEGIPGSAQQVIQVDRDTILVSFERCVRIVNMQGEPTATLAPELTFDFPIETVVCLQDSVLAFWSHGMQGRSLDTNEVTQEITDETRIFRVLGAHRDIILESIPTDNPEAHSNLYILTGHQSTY

JNK3 = molecular target: T7, JNK3 (Homo sapiens, UniProt P53779)
T7 construct: purchased Eurofins DiscoverX KINOMEscan
T7 sequence (P53779 whole entry): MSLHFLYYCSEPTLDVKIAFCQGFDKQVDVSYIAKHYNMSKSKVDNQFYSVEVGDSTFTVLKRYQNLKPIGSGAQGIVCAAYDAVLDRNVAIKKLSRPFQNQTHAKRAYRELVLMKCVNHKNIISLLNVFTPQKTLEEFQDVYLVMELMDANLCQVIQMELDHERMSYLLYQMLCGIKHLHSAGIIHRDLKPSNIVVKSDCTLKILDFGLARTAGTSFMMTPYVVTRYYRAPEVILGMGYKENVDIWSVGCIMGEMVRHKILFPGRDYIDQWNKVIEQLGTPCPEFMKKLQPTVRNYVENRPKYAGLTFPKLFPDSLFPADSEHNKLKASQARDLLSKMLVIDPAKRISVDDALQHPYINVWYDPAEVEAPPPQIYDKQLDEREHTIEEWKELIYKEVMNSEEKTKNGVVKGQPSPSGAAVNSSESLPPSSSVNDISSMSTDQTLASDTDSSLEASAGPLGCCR

STK16 = molecular target: T8, STK16 (Homo sapiens, UniProt O75716)
T8 construct: purchased Eurofins DiscoverX KINOMEscan
T8 sequence (O75716 whole entry): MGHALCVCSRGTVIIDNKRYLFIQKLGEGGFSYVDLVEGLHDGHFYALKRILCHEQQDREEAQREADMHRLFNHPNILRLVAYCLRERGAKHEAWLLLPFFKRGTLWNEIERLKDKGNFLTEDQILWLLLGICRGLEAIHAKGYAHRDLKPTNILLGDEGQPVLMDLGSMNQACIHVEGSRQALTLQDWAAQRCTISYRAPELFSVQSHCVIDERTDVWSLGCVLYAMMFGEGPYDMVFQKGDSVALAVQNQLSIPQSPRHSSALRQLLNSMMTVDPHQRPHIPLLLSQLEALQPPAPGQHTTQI

SMILES | remaining binding at 1 µM (MST2) | remaining binding at 1 µM (TAOK1) | remaining binding at 1 µM (PIP5K1C) | remaining binding at 1 µM (CSK) | remaining binding at 1 µM (MKK7) | remaining binding at 1 µM (MAP4K2) | remaining binding at 1 µM (JNK3) | remaining binding at 1 µM (STK16)
Clc1cc(NCC2CC2)c2ncc(-c3ccc4[nH]ncc4c3)n2n1 [compound 2, 6-Chloro-N-(cyclopropylmethyl)-3-(1H-indazol-5-yl)imidazo[1,2-b]pyridazin-8-amine] | 85% | 93% | 85% | 100% | 92% | 99% | 89% | 100%
O=C(CN1CCOCC1)N[C@H]1CC[C@H](Nc2cc(Cl)nn3c(-c4ccc5[nH]ncc5c4)cnc23)CC1 [compound 26] | 92% | 85% | 91% | 94% | 100% | 76% | 79% | 83%
CN1CCC(CNc2cc(Cl)nn3c(-c4cc5nc(Nc6ccccc6)[nH]c5cc4F)cnc23)CC1 [compound 31, 6-Chloro-3-(6-fluoro-2-(phenylamino)-1H-benzo[d]imidazol-5-yl)-N-((1-methylpiperidin-4-yl)methyl)imidazo[1,2-b]pyridazin-8-amine] | 100% | 75% | 84% | 98% | 93% | 85% | 99% | 96%
